# Laboratory results reported in US9290485B2, “N-((6-amino-pyridin-3-yl)methyl)-heteroaryl-carboxamides” (NOVARTIS AG, priority 2010, dated 2016).
# Biological target: human plasma kallikrein (Homo sapiens (Human), UniProt P03952)
# Details: human plasma kallikrein 25 pM, substrate 0.5 uM, 1 hour pre-incubation at room temperature, read at t=60 min
# Chain of human plasma kallikrein (P03952 whole entry, looked up): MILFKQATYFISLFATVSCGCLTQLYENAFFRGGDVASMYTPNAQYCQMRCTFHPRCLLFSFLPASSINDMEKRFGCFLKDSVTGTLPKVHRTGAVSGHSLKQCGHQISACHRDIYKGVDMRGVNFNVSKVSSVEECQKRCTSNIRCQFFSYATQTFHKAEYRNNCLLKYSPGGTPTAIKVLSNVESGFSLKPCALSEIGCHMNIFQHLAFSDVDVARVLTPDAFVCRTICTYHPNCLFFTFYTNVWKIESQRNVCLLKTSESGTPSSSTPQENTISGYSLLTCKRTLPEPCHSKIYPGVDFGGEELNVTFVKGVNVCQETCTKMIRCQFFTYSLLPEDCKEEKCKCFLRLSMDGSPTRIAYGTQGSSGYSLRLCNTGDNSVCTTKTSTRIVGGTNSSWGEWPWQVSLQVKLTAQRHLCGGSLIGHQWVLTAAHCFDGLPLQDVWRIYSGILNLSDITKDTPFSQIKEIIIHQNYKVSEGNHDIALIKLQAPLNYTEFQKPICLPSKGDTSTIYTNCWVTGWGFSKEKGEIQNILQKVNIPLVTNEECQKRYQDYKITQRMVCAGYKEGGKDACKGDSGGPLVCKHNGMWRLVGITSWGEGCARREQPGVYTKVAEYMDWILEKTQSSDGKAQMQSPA
# Chain of human plasma kallikrein (P03952 whole entry partner, looked up): as the sequence (P03952 whole entry, looked up) above
row,SMILES,IC50 [nM]
1,"Cc1cc(N)nc(C)c1CNC(=O)c1cn(Cc2ccccc2)nc1C [Example 49, N-((6-amino-2,4-dimethylpyridin-3-yl)methyl)-1-benzyl-3-methyl-1H-pyrazole-4-carboxamide]",679
2,"Cc1cc(N)nc(C)c1CNC(=O)c1cc(C)n(C(C)c2ccccc2)c1C (stereo not shown) [Example 51, N-((6-amino-2,4-dimethylpyridin-3-yl)methyl)-2,5-dimethyl-1-(1-phenylethyl)-1H-pyrrole-3-carboxamide]",7000
3,"Cc1cc(N)nc(C)c1CNC(=O)c1cc(S(=O)(=O)N2CCOCC2)c[nH]1 [Example 52, N-((6-amino-2,4-dimethylpyridin-3-yl)methyl)-4-(morpholinosulfonyl)-1H-pyrrole-2-carboxamide]",5700
4,"Cc1cc(N)nc(C)c1CNC(=O)c1cn(Cc2c(F)cccc2F)nn1 [Example 53, N-((6-amino-2,4-dimethylpyridin-3-yl)methyl)-1-(2,6-difluorobenzyl)-1H-1,2,3-triazole-4-carboxamide]",3600
5,"Cc1cc(N)nc(C)c1CNC(=O)c1cn(Cc2cccc(C#N)c2)nn1 [Example 54, N-((6-amino-2,4-dimethylpyridin-3-yl)methyl)-1-(3-cyanobenzyl)-1H-1,2,3-triazole-4-carboxamide]",1800
6,"Cc1cc(N)nc(C)c1CNC(=O)c1sc(Cc2ccccc2)nc1C [Example 55, N-((6-amino-2,4-dimethylpyridin-3-yl)methyl)-2-benzyl-4-methylthiazole-5-carboxamide]",6300
7,"Cc1cc(N)nc(C)c1CNC(=O)c1ncn(Cc2ccccc2)n1 [Example 56, N-((6-amino-2,4-dimethylpyridin-3-yl)methyl)-1-benzyl-1H-1,2,4-triazole-3-carboxamide]",4400
8,"Cc1cncc(Oc2ccc(Cn3cc(C(=O)NCc4c(C)cc(N)nc4C)cn3)cc2)n1 [Example 57, N-((6-amino-2,4-dimethylpyridin-3-yl)methyl)-1-(4-(6-methylpyrazin-2-yloxy)benzyl)-1H-pyrazole-4-carboxamide]",144
9,"Cc1cc(N)nc(C)c1CNC(=O)c1coc(Cc2ccccc2)n1 [Example 58, N-((6-amino-2,4-dimethylpyridin-3-yl)methyl)-2-benzyloxazole-4-carboxamide]",3800
10,Cc1cc(N)nc(C)c1CNC(=O)c1ncn(Cc2ccc(Cn3cncn3)cc2)n1 [Example 59],209
11,"COCCOc1cc(N)nc(C)c1CNC(=O)c1cnn(Cc2ccccc2)c1 [Example 60, N-((6-amino-4-(2-methoxyethoxy)-2-methylpyridin-3-yl)methyl)-1-benzyl-1H-pyrazole-4-carboxamide]",379
12,"Cc1cc(N)nc(C)c1CNC(=O)c1ncn(Cc2ccc(-c3ccccc3)cc2)n1 [Example 61, N-((6-amino-2,4-dimethylpyridin-3-yl)methyl)-1-(biphenyl-4-ylmethyl)-1H-1,2,4-triazole-3-carboxamide]",46
13,"Cc1cc(N)nc(C)c1CNC(=O)c1ncn(Cc2cccc3ccccc23)n1 [Example 62, N-((6-amino-2,4-dimethylpyridin-3-yl)methyl)-1-(naphthalen-1-ylmethyl)-1H-1,2,4-triazole-3-carboxamide]",681
14,"Cc1cc(N)nc(C)c1CNC(=O)c1ncn(Cc2ccc(Oc3ccccc3)cc2)n1 [Example 63, N-((6-amino-2,4-dimethylpyridin-3-yl)methyl)-1-(4-phenoxybenzyl)-1H-1,2,4-triazole-3-carboxamide]",11
15,"Cc1cc(N)nc(C)c1CNC(=O)c1ncn(Cc2ccc3ccccc3c2)n1 [Example 64, N-((6-amino-2,4-dimethylpyridin-3-yl)methyl)-1-(naphthalen-2-ylmethyl)-1H-1,2,4-triazole-3-carboxamide]",14
16,"Cc1cc(N)nc(C)c1CNC(=O)c1cnn(Cc2ccc(N3CCCC3=O)cc2)c1 [Example 65, N-((6-amino-2,4-dimethylpyridin-3-yl)methyl)-1-(4-(2-oxopyrrolidin-1-yl)benzyl)-1H-pyrazole-4-carboxamide]",29
17,"Cc1cc(N)nc(C)c1CNC(=O)c1ncn(Cc2ccc(-n3cccn3)cc2)n1 [Example 66, 1-(4-(1H-pyrazol-1-yl)benzyl)-N-((6-amino-2,4-dimethylpyridin-3-yl)methyl)-1H-1,2,4-triazole-3-carboxamide]",325
18,"Cc1cc(N)nc(C)c1CNC(=O)c1ncn(Cc2cccc(-n3cccn3)c2)n1 [Example 67, 1-(3-(1H-pyrazol-1-yl)benzyl)-N-((6-amino-2,4-dimethylpyridin-3-yl)methyl)-1H-1,2,4-triazole-3-carboxamide]",60
19,"Cc1cc(N)nc(C)c1CNC(=O)c1ncn(Cc2cccc(N3CCCC3)c2)n1 [Example 68, N-((6-amino-2,4-dimethylpyridin-3-yl)methyl)-1-(3-(pyrrolidin-1-yl)benzyl)-1H-1,2,4-triazole-3-carboxamide]",34
20,"Cc1cc(N)nc(C)c1CNC(=O)c1cnn(Cc2ccnc(N3CCOCC3)c2)c1 [Example 69, N-((6-amino-2,4-dimethylpyridin-3-yl)methyl)-1-((2-morpholinopyridin-4-yl)methyl)-1H-pyrazole-4-carboxamide]",1600

row,SMILES,IC50 [nM]
1,"Cc1cc(N)nc(C)c1CNC(=O)c1ccn(Cc2ccccc2)c1 [Example 70, N-((6-amino-2,4-dimethylpyridin-3-yl)methyl)-1-benzyl-1H-pyrrole-3-carboxamide]",4100
2,"COCCc1cccc(Cn2cc(C(=O)NCc3c(C)cc(N)nc3C)cn2)c1 [Example 71, N-((6-amino-2,4-dimethylpyridin-3-yl)methyl)-1-(3-(2-methoxyethyl)benzyl)-1H-pyrazole-4-carboxamide]",190
3,"Cc1cc(N)nc(C)c1CNC(=O)c1cc(C)n(S(=O)(=O)c2ccccc2)c1C [Example 72, N-((6-amino-2,4-dimethylpyridin-3-yl)methyl)-2,5-dimethyl-1-(Phenylsulfonyl)-1H-pyrrole-3-carboxamide]",937
4,"COc1cc(Cn2cc(C(=O)NCc3c(C)cc(N)nc3C)cn2)cc(OC)c1 [Example 73, N-((6-amino-2,4-dimethylpyridin-3-yl)methyl)-1-(3,5-dimethoxybenzyl)-1H-pyrazole-4-carboxamide]",114
5,"Cc1cn(S(=O)(=O)c2ccccc2)cc1C(=O)NCc1c(C)cc(N)nc1C [Example 74, N-((6-amino-2,4-dimethylpyridin-3-yl)methyl)-4-methyl-1-(phenylsulfonyl)-1H-pyrrole-3-carboxamide]",595
6,"Cc1cc(N)nc(C)c1CNC(=O)c1cnn(Cc2ccc3[nH]c(C)c(C)c3c2)c1 [Example 75, N-((6-amino-2,4-dimethylpyridin-3-yl)methyl)-1-((2,3-dimethyl-1H-indol-5-yl)methyl)-1H-pyrazole-4-carboxamide]",3.1
7,"Cc1cn(Cc2ccccc2)cc1C(=O)NCc1c(C)cc(N)nc1C [Example 76, N-((6-amino-2,4-dimethylpyridin-3-yl)methyl)-1-benzyl-4-methyl-1H-pa role-3-carboxamide]",949
8,"Cc1nc(N)cc(OCC(N)=O)c1CNC(=O)c1cnn(Cc2ccccc2)c1 [Example 77, N-((6-amino-4-(2-amino-2-oxoethoxy)-2-methylpyridin-3-yl)methyl)-1-benzyl-1H-pyrazole-4-carboxamide]",72
9,"Cc1cc(N)nc(C)c1CNC(=O)c1coc(Oc2ccccc2)n1 [Example 78, N-((6-amino-2,4-dimethylpyridin-3-yl)methyl)-2-phenoxyoxazole-4-carboxamide]",10100
10,"Cc1cc(N)nc(C)c1CNC(=O)c1cnn(Cc2ccc(OC(F)(F)F)cc2)c1 [Example 80, N-((6-amino-2,4-dimethylpyridin-3-yl)methyl)-1-(4-(trifluoromethoxy)benzyl)-1H-pyrazole-4-carboxamide]",117
11,"Cc1cc(N)nc(C)c1CNC(=O)c1cnn(Cc2cccc(C#N)c2)c1 [Example 81, N-((6-amino-2,4-dimethylpyridin-3-yl)methyl)-1-(3-cyanobenzyl)-1H-pyrazole-4-carboxamide]",411
12,"Cc1cc(N)nc(C)c1CNC(=O)c1cnn(Cc2ccc(C#N)cc2)c1 [Example 82, N-((6-amino-2,4-dimethylpyridin-3-yl)methyl)-1-(4-cyanobenzyl)-1H-pyrazole-4-carboxamide]",678
13,"Cc1cc(N)nc(C)c1CNC(=O)c1cnn(Cc2ccc3ccccc3c2)c1 [Example 83, N-((6-amino-2,4-dimethylpyridin-3-yl)methyl)-1-(naphthalen-2-ylmethyl)-1H-pyrazole-4-carboxamide]",18
14,"Cc1cc(N)nc(C)c1CNC(=O)c1cnn(Cc2cccc(F)c2)c1 [Example 84, N-((6-amino-2,4-dimethylpyridin-3-yl)methyl)-1-(3-fluorobenzyl)-1H-pyrazole-4-carboxamide]",498
15,"Cc1nc(N)ccc1CNC(=O)c1cnn(Cc2ccccc2)c1 [Example 85, N-((6-amino-2-methylpyridin-3-yl)methyl)-1-benzyl-1H-pyrazole-4-carboxamide]",4100
16,"Cc1cccc(Cn2cc(C(=O)NCc3c(C)cc(N)nc3C)cn2)n1 [Example 86, N-((6-amino-2,4-dimethylpyridin-3-yl)methyl)-1-((6-methylpyridin-2-yl)methyl)-1H-pyrazole-4-carboxamide]",7500
17,"Cc1cc(N)nc(C)c1CNC(=O)c1cnn(Cc2ccccc2Cl)c1 [Example 87, N-((6-amino-2,4-dimethylpyridin-3-yl)methyl)-1-(2-chlorobenzyl)-1H-pyrazole-4-carboxamide]",1300
18,"Cc1cc(N)nc(C)c1CNC(=O)c1cnn(CC2CCCCC2)c1 [Example 88, N-((6-amino-2,4-dimethylpyridin-3-yl)methyl)-1-(cyclohexylmethyl)-1H-pyrazole-4-carboxamide]",1800
19,"Cc1cc(N)nc(C)c1CNC(=O)c1cnn(Cc2ccc(COc3ccccc3)cc2)c1 [Example 89, N-((6-amino-2,4-dimethylpyridin-3-yl)methyl)-1-(4-(Phenoxymethyl)benzyl)-1H-pyrazole-4-carboxamide]",6
20,"Cc1cc(N)nc(C)c1CNC(=O)c1cnn(Cc2ccc(F)c(F)c2)c1 [Example 90, N-((6-amino-2,4-dimethylpyridin-3-yl)methyl)-1-(3,4-difluorobenzyl)-1H-pyrazole-4-carboxamide]",2000
